Source: patent publication US8404692B2, “Pyrimidin-4-yl-3, 4-dihydro-2H-pyrrolo [1,2A] pyrazin-1-one compounds” (Cyclacel Limited, priority 2005, dated 2013)
pIC50: −log10 of the molar value.

What follows are molecules tested against T1, aurora-A (human) (Homo sapiens, UniProt O14965) (assay: Aurora-A (human) kinase assay). Conditions: read-out: Activity (Aurora A activity, IC50 grading).
T1 construct: purchased Upstate, Dundee, UK
T1 sequence (O14965 1-403): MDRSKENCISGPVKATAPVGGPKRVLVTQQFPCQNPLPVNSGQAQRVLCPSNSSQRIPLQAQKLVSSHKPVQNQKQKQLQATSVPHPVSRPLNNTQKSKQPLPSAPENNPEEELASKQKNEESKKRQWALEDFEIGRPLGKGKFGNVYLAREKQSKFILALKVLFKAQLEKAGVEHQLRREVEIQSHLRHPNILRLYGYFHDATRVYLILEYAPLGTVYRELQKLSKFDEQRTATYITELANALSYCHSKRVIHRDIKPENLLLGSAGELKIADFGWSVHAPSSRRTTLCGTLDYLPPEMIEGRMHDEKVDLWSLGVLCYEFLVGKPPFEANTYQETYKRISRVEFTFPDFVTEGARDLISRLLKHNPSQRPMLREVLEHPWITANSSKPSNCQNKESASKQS
Format: biochemical
Outline: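 Radiometric assay measuring [γ-32P] transfer from 100 μM ATP to 500 μM Kemptide by 2-5 ng active human aurora-A, pH 7.5 buffer, 30 min at 30° C. Incorporated label captured on P81 filters and counted by scintillation; IC50 from curve fitting.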

pIC50	Structure (SMILES)
> 5.00	Cc1ccc(F)cc1Nc1nccc(-c2c(C)c3n(c2C)CCNC3=O)n1 [Example I-88, 7-[2-(5-Fluoro-2-methyl-phenylamino)-pyrimidin-4-yl]-6,8-dimethyl-3,4-dihydro-2H-pyrrolo[1,2-a]pyrazin-1-one]
> 5.00	Cc1ccc(Oc2ccc(Nc3nccc(-c4c(C)c5n(c4C)CCNC5=O)n3)cc2)cc1 [Example I-89, 6,8-Dimethyl-7-[2-(4-p-tolyloxy-phenylamino)-pyrimidin-4-yl]-3,4-dihydro-2H-pyrrolo[1,2-a]pyrazin-1-one]
> 5.00	CCN(CC)CCNS(=O)(=O)c1ccc(Nc2nccc(-c3c(C)c4n(c3C)CCNC4=O)n2)cc1C [Example I-90, N-(2-Diethylamino-ethyl)-4-[4-(6,8-dimethyl-1-oxo-1,2,3,4-tetrahydro-pyrrolo[1,2-a]pyrazin-7-yl)-pyrimidin-2-ylamino]-2-methyl-benzenesulfonamide]
> 5.00	Cc1cc(Nc2nccc(-c3c(C)c4n(c3C)CCNC4=O)n2)ccc1S(=O)(=O)N(C)CCCN(C)C [Example I-91, N-(3-Dimethylamino-propyl)-4-[4-(6,8-dimethyl-1-oxo-1,2,3,4-tetrahydro-pyrrolo[1,2-a]pyrazin-7-yl)-pyrimidin-2-ylamino]-2,N-dimethyl-benzenesulfonamide]
> 5.00	CCOC(=O)c1c(C)nn(-c2ccc(Nc3nccc(-c4c(C)c5n(c4C)CCNC5=O)n3)cc2)c1C [Example I-92, 1-{4-[4-(6,8-Dimethyl-1-oxo-1,2,3,4-tetrahydro-pyrrolo[1,2-a]pyrazin-7-yl)-pyrimidin-2-ylamino]-phenyl}-3,5-dimethyl-1H-pyrazole-4-carboxylic acid ethyl ester]
> 7.00	Cc1nccc(-c2cccc(Nc3nccc(-c4c(C)c5n(c4C)CCN(C)C5=O)n3)c2)n1 [Example I-93, 2,6,8-Trimethyl-7-{2-[3-(2-methyl-pyrimidin-4-yl)-phenylamino]-pyrimidin-4-yl}-3,4-dihydro-2H-pyrrolo[1,2-a]pyrazin-1-one]
> 7.00	Cc1c(-c2ccnc(Nc3ccc4c(c3)CS(=O)(=O)C4)n2)c(C)n2c1C(=O)N(C)CC2 [Example I-94, 7-[2-(2,2-Dioxo-2,3-dihydro-1H-2-benzo[c]thiophen-5-ylamino)-pyrimidin-4-yl]-2,6,8-trimethyl-3,4-dihydro-2H-pyrrolo[1,2-a]pyrazin-1-one]
> 6.00	CCN1CCn2c(C)c(-c3ccnc(Nc4cccc(-c5ccnc(C)n5)c4)n3)c(C)c2C1=O [Example I-95, 2-Ethyl-6,8-dimethyl-7-{2-[3-(2-methyl-pyrimidin-4-yl)-phenylamino]-pyrimidin-4-yl}-3,4-dihydro-2H-pyrrolo[1,2-a]pyrazin-1-one]
> 5.00	Cc1c(-c2ccnc(Nc3cccc(S(=O)(=O)N4CCCCC4)c3)n2)c(C)n2c1C(=O)NCC2 [Example I-95c, 6,8-Dimethyl-7-{2-[3-(piperidine-1-sulfonyl)-phenylamino]-pyrimidin-4-yl}-3,4-dihydro-2H-pyrrolo[1,2-a]pyrazin-1-one]
> 7.00	COCCNC(=O)Cc1ccc(Nc2nccc(-c3c(C)c4n(c3C)CCNC4=O)n2)cc1 [Example I-96, 2-{4-[4-(6,8-Dimethyl-1-oxo-1,2,3,4-tetrahydro-pyrrolo[1,2-a]pyrazin-7-yl)-pyrimidin-2-ylamino]-phenyl}-N-(2-methoxy-ethyl)-acetamide]
> 6.00	Cc1c(-c2ccnc(Nc3ccc(CC(=O)N(C)CCCN(C)C)cc3)n2)c(C)n2c1C(=O)NCC2 [Example I-98, N-(3-Dimethylamino-propyl)-2-{4-[4-(6,8-dimethyl-1-oxo-1,2,3,4-tetrahydro-pyrrolo[1,2-a]pyrazin-7-yl)-pyrimidin-2-ylamino]-phenyl}-N-methyl-acetamide]
> 6.00	Cc1c(-c2ccnc(Nc3ccc(CC(=O)N4CCOCC4)cc3)n2)c(C)n2c1C(=O)NCC2 [Example I-99, 6,8-Dimethyl-7-{2-[4-(2-morpholin-4-yl-2-oxo-ethyl)-phenylamino]-pyrimidin-4-yl}-3,4-dihydro-2H-pyrrolo[1,2-a]pyrazin-1-one]
> 6.00	CC(=O)N1CCN(C(=O)Cc2ccc(Nc3nccc(-c4c(C)c5n(c4C)CCNC5=O)n3)cc2)CC1 [Example I-100, 7-(2-{4-[2-(4-Acetyl-piperazin-1-yl)-2-oxo-ethyl]-phenylamino}-pyrimidin-4-yl)-6,8-dimethyl-3,4-dihydro-2H-pyrrolo[1,2-a]pyrazin-1-one]
> 7.00	Cc1c(-c2ccnc(Nc3ccc(CC(N)=O)cc3)n2)c(C)n2c1C(=O)NCC2 [Example I-102, 2-{4-[4-(6,8-Dimethyl-1-oxo-1,2,3,4-tetrahydro-pyrrolo[1,2-a]pyrazin-7-yl)-pyrimidin-2-ylamino]-phenyl}-acetamide]
> 7.00	CNC(=O)Cc1ccc(Nc2nccc(-c3c(C)c4n(c3C)CCNC4=O)n2)cc1 [Example I-103, 2-{4-[4-(6,8-Dimethyl-1-oxo-1,2,3,4-tetrahydro-pyrrolo[1,2-a]pyrazin-7-yl)-pyrimidin-2-ylamino]-phenyl}-N-methyl-acetamide]
> 6.00	Cc1c(-c2ccnc(Nc3ccc(CC(=O)N(C)C)cc3)n2)c(C)n2c1C(=O)NCC2 [Example I-104, 2-{4-[4-(6,8-Dimethyl-1-oxo-1,2,3,4-tetrahydro-pyrrolo[1,2-a]pyrazin-7-yl)-pyrimidin-2-ylamino]-phenyl}-N,N-dimethyl-acetamide]
> 7.00	COCCNC(=O)CCc1cccc(Nc2nccc(-c3c(C)c4n(c3C)CCNC4=O)n2)c1 [Example I-105, 3-{3-[4-(6,8-Dimethyl-1-oxo-1,2,3,4-tetrahydro-pyrrolo[1,2-a]pyrazin-7-yl)-pyrimidin-2-ylamino]-phenyl}-N-(2-methoxy-ethyl)-propionamide]
> 6.00	Cc1c(-c2ccnc(Nc3cccc(CCC(=O)N(C)CCN(C)C)c3)n2)c(C)n2c1C(=O)NCC2 [Example I-106, N-(2-Dimethylamino-ethyl)-3-{3-[4-(6,8-dimethyl-1-oxo-1,2,3,4-tetrahydro-pyrrolo[1,2-a]pyrazin-7-yl)-pyrimidin-2-ylamino]-phenyl}-N-methyl-propionamide]
> 6.00	Cc1c(-c2ccnc(Nc3cccc(CCC(=O)N(C)CCCN(C)C)c3)n2)c(C)n2c1C(=O)NCC2 [Example I-107, N-(3-Dimethylamino-propyl)-3-{3-[4-(6,8-dimethyl-1-oxo-1,2,3,4-tetrahydro-pyrrolo[1,2-a]pyrazin-7-yl)-pyrimidin-2-ylamino]-phenyl}-N-methyl-propionamide]
> 7.00	Cc1c(-c2ccnc(Nc3cccc(CCC(=O)N4CCOCC4)c3)n2)c(C)n2c1C(=O)NCC2 [Example I-108, 6,8-Dimethyl-7-{2-[3-(3-morpholin-4-yl-3-oxo-propyl)-phenylamino]-pyrimidin-4-yl}-3,4-dihydro-2H-pyrrolo[1,2-a]pyrazin-1-one]
> 6.00	CC(=O)N1CCN(C(=O)CCc2cccc(Nc3nccc(-c4c(C)c5n(c4C)CCNC5=O)n3)c2)CC1 [Example I-109, 7-(2-{3-[3-(4-Acetyl-piperazin-1-yl)-3-oxo-propyl]-phenylamino}-pyrimidin-4-yl)-6,8-dimethyl-3,4-dihydro-2H-pyrrolo[1,2-a]pyrazin-1-one]
> 6.00	Cc1c(-c2ccnc(Nc3cccc(CCC(=O)N4CCN(C)CC4)c3)n2)c(C)n2c1C(=O)NCC2 [Example I-110, 6,8-Dimethyl-7-(2-{3-[3-(4-methyl-piperazin-1-yl)-3-oxo-propyl]-phenylamino}-pyrimidin-4-yl)-3,4-dihydro-2H-pyrrolo[1,2-a]pyrazin-1-one]
> 7.00	Cc1c(-c2ccnc(Nc3cccc(CCC(N)=O)c3)n2)c(C)n2c1C(=O)NCC2 [Example I-111, 3-{3-[4-(6,8-Dimethyl-1-oxo-1,2,3,4-tetrahydro-pyrrolo[1,2-a]pyrazin-7-yl)-pyrimidin-2-ylamino]-phenyl}-propionamide]
> 7.00	CNC(=O)CCc1cccc(Nc2nccc(-c3c(C)c4n(c3C)CCNC4=O)n2)c1 [Example I-112, 3-{3-[4-(6,8-Dimethyl-1-oxo-1,2,3,4-tetrahydro-pyrrolo[1,2-a]pyrazin-7-yl)-pyrimidin-2-ylamino]-phenyl}-N-methyl-propionamide]
> 7.00	Cc1c(-c2ccnc(Nc3cccc(CCC(=O)N(C)C)c3)n2)c(C)n2c1C(=O)NCC2 [Example I-113, 3-{3-[4-(6,8-Dimethyl-1-oxo-1,2,3,4-tetrahydro-pyrrolo[1,2-a]pyrazin-7-yl)-pyrimidin-2-ylamino]-phenyl}-N,N-dimethyl-propionamide]
> 5.00	COc1cc(C(=O)NC2CCN(C)CC2)ccc1Nc1nccc(-c2c(C)c3n(c2C)CCNC3=O)n1 [Example I-114, 4-[4-(6,8-Dimethyl-1-oxo-1,2,3,4-tetrahydro-pyrrolo[1,2-a]pyrazin-7-yl)-pyrimidin-2-ylamino]-3-methoxy-N-(1-methyl-piperidin-4-yl)-benzamide]

Structure (SMILES)	pIC50
Cc1c(-c2ccnc(Nc3ccc(CC(=O)N(C)CCN(C)C)cc3)n2)c(C)n2c1C(=O)NCC2 [Example I-97, N-(2-Dimethylamino-ethyl)-2-{4-[4-(6,8-dimethyl-1-oxo-1,2,3,4-tetrahydro-pyrrolo[1,2-a]pyrazin-7-yl)-pyrimidin-2-ylamino]-phenyl}-N-methyl-acetamide]	> 6.00
Cc1c(-c2ccnc(Nc3ccc(CC(=O)N4CCN(C)CC4)cc3)n2)c(C)n2c1C(=O)NCC2 [Example I-101, 6,8-Dimethyl-7-(2-{4-[2-(4-methyl-piperazin-1-yl)-2-oxo-ethyl]-phenylamino}-pyrimidin-4-yl)-3,4-dihydro-2H-pyrrolo[1,2-a]pyrazin-1-one]	> 7.00
